Our source for the Km values is patent US5486511A, “4-amino-17β-(cyclopropyloxy)androst-4-en-3-one, 4-amino-17β-(cyclopropylamino)androst-4-en-3-one and related compounds as C17-20 lyase and 5α-reductase” (Merrell Dow Pharmaceuticals Inc., priority 1994, dated 1996).

For one series, the system named is nude mouse lyase. Put plainly: Inhibition of athymic nude mouse steroid C17,20 lyase (testicular microsomes). As to conditions: substrate, athymic nude mouse enzyme. Format: biochemical. The protocol:
(§1) The activity of the present compounds as inhibitors of steroid C17,20 lyase was established using microsomal preparations of the steroid C17,20 lyase enzyme from human or laboratory animal testes. Human testes used for this purpose were obtained from therapeutic orchiectomies. Specifically, microsomes were isolated from human, cynomolgus monkey, dog, rat or athymic nude mouse testicular tissue. The compound to be tested was dissolved in dimethyl sulfoxide and diluted in 0.05M potassium phosphate buffer to give the desired concentrations of the test compound. The potassium phosphate buffer was at pH 7.4 for the human, monkey and dog lyase assays and at pH 7.2 for the rat and athymic nude mouse lyase assays. Assays also contained 1 mM NADPH, 5 mM glucose-6-phosphate, 1 IU/ml glucose-6-phosphate dehydrogenase (an NADPH regenerating system) and microsomal protein in a total volume of 0.2 mL. Control assays contained all components including dimethyl sulfoxide, but with no test compound. All assays were performed in duplicate. […] Radioactivity in the steroid peaks was measured by a Radiomatic Model HS Flo-One detector.
(§2) The enzyme activity for each incubate was calculated from the percent conversion of substrate to products, and the results were expressed as percent inhibition of control. […] The Ki and kinact for time dependent inhibitors were determined by graphical analysis of Kitz-Wilson plots. […]

The test system of another series is rat lyase. Put plainly: Inhibition of rat steroid C17,20 lyase (testicular microsomes). Format: biochemical. As to conditions: substrate, rat enzyme. How it is done: as §1, §2
The next series deals with canine lyase. Put plainly: Inhibition of canine steroid C17,20 lyase (testicular microsomes). Format: biochemical, dog. To be noted: substrate, dog lyase. How it is done: as §1, §2
Substrate in series [1]: CC(=O)[C@@]1(O)CC[C@H]2[C@@H]3CC=C4C[C@@H](O)CC[C@]4(C)[C@H]3CC[C@@]21C
Put plainly: Inhibition of cynomolgus monkey steroid C17,20 lyase (testicular microsomes), time dependent, Kitz-Wilson. To be noted: other: substrate, 34.0 °C. The class given is biochemical. How it is done:
as §1, §2

Substrate in series [2]: CC(=O)[C@@]1(O)CC[C@H]2[C@@H]3CC=C4C[C@@H](O)CC[C@]4(C)[C@H]3CC[C@@]21C
In words: Inhibition of human steroid C17,20 lyase (testicular microsomes). Format: biochemical. As to conditions: other: substrate, 34.0 °C. The protocol: as §1, §2

The term Km denotes the substrate concentration at which the rate is half of its maximum. For the molecule `CC(=O)[C@@]1(O)CC[C@H]2[C@@H]3CCC4=CC(=O)CC[C@]4(C)[C@H]3CC[C@@]21C` [17α-hydroxyprogesterone, reference compound], the Km with nude mouse lyase was found to be 0.03 µM; with rat lyase, 0.1 µM.

Take `CC(=O)[C@@]1(O)CC[C@H]2[C@@H]3CC=C4C[C@@H](O)CC[C@]4(C)[C@H]3CC[C@@]21C` [17α-hydroxypregnenolone, reference compound]: in the series on canine lyase, the Michaelis-Menten constant (Km) amounted to 0.06 µM.

B1: cynomolgus monkey C17,20 lyase (Macaca fascicularis) (protein)
chain: MWELVALLLLTLAYLFWPKRRCPGAKYPKSLLSLPLVGSLPFLPRHGHMHNNFFKLQKKYGPIYSVRMGTKTTVIVGHHQLAKEVLIKKGKDFSGRPQVTTLDILSNNRKGIAFADYGAHWQLHRRLAMATFALFKDGDQKLEKIICQEISTLCDMLATHNGQTIDISFPVFVAITNVISLICFNISYKNGDPELKIVHNYNEGIIDSLGKESLVDLFPWLKVFPNKTLEKLKRHVKTRNDLLTKIFENYKEKFHSDSITNMLDVLMQAKMNSDNGNAGPDQDSELLSDNHILTTIGDIFGAGVETTTSVVKWIVAFLLHNPQVKKKLYEEIDQNVGFSRTPTISDRNRLLLLEATIREVLRIRPVAPMLIPHKANVDSSIGEFAVDKGTHVIINLWALHHNEKEWHQPDQFMPERFLNPAGTQLISPSLSYLPFGAGPRSCIGEILARQELFLIMAWLLQRFDLEVPDDGQLPSLEGNPKVVFLIDSFKVKIKVRQAWREAQAEGST
notes: microsomes were isolated from human, cynomolgus monkey, dog, rat or athymic nude mouse testicular tissue; from tissue; host or cells: cynomolgus monkey testis microsomes
On to B1, for which, in series [1], the Km was determined as 0.11 µM.

B2: human lyase (Homo sapiens) (protein)
chain: MWELVALLLLTLAYLFWPKRRCPGAKYPKSLLSLPLVGSLPFLPRHGHMHNNFFKLQKKYGPIYSVRMGTKTTVIVGHHQLAKEVLIKKGKDFSGRPQMATLDIASNNRKGIAFADSGAHWQLHRRLAMATFALFKDGDQKLEKIICQEISTLCDMLATHNGQSIDISFPVFVAVTNVISLICFNTSYKNGDPELNVIQNYNEGIIDNLSKDSLVDLVPWLKIFPNKTLEKLKSHVKIRNDLLNKILENYKEKFRSDSITNMLDTLMQAKMNSDNGNAGPDQDSELLSDNHILTTIGDIFGAGVETTTSVVKWTLAFLLHNPQVKKKLYEEIDQNVGFSRTPTISDRNRLLLLEATIREVLRLRPVAPMLIPHKANVDSSIGEFAVDKGTEVIINLWALHHNEKEWHQPDQFMPERFLNPAGTQLISPSVSYLPFGAGPRSCIGEILARQELFLIMAWLLQRFDLEVPDDGQLPSLEGIPKVVFLIDSFKVKIKVRQAWREAQAEGST
notes: microsomes were isolated from human, cynomolgus monkey, dog, rat or athymic nude mouse testicular tissue; from tissue; host or cells: human testis microsomes (therapeutic orchiectomies)
As for B2, the Km in series [2] was 0.30 µM.
